Where no end group is shown, it is not given here.
What was measured:
mAb 763.74 = assay: Inhibition by peptides of binding of biotinylated mAb 763.74 to HMW-MAA-bearing Colo38 melanoma cells; conditions: for Inhibition of binding of mAb 763.74 to HMW-MAA-bearing melanoma cells: Colo38 cells, escalating peptide concentrations, FIG. 3; for IC50 for inhibition of mAb 763.74 binding: biotinylated mAb 763.74 incubated with peptide at 4° C. overnight, then Colo38 cells 1 h at 4° C., read-out: Dissociation constant (Kd), molar concentration of the peptide required to cause a 50% inhibition of binding of biotinylated mAb 763.74 to Colo38 cells
Protocol: FIG. 3 is a graphical depiction of dose-dependent inhibition by anti-id mAb MK2-23H3-derived peptide PMK2-23H3 of binding of mAb 763.74 to HMW-MAA-bearing Colo38 melanoma cells. Peptides PHMW.D2.7 (HMW-MAA-derived), PMK2-23H3 (anti-id mAb MK2-23H3-derived), and an irrelevant control peptide Pb2m (β2-microglobulin-derived) at increasing concentrations were incubated with biotinylated mAb 763.74 (0.5 μg/ml) and assayed as described in Example 2. Results of one of three representative experiments are shown.
PMK2-23H3, PMK2-23L1, and PHMW-MAA.D2.7 were synthesized by N.C. Wang, Hospital for Sick Children, Toronto, ON, Canada. A synthetic peptide derived from β2-microglobulin (Pb2m, KNGERIEKVEHS SEQ ID NO:4), used as a negative control, was purchased from University of Georgia Molecular Genetics Instrumentation Facility (Athens, Ga.). mAb 763.74 was purified from ascitic fluid by sequential ammonium sulphate and caprylic acid precipitation (Temponi, et al. (1989) Hybridoma. 8, 85-95). The purity and activity of mAb preparations were assessed by SDS-PAGE and by testing with the corresponding antigen in a binding assay, respectively. Biotinylation was performed using NHS-LC-biotin (Pierce, Rockford, Ill.) according to the manufacturer's instructions.)
Escalating concentrations of peptides were incubated with biotinylated mAb 763.74 ([…]) at 4° C. overnight in U-bottom 96-well plates. The mixture was then incubated with HMW-MAA-bearing melanoma cells Colo38 (10^5/well) for 1 h at 4° C. After three washes with 1% bovine serum albumin in phosphate buffered saline, an optimal amount of horseradish peroxidase-conjugated streptavidin was added. Reactions were then developed and visualized with the TMB substrate system (KPL, Gaithersburg, Md.). Reactions were reported as optical density (O.D.) measured with an ELISA reader. Percent inhibition was calculated by the formula: 100%×(O.D.irrelevant peptide−O.D.test peptide)/O.D.irrelevant peptide. Dissociation constant (Kd) was calculated as the molar concentration of the peptide required to cause a 50% inhibition of binding of biotinylated mAb 763.74 to HMW-MAA-bearing melanoma cells Colo38 (Temponi, et al. (1992) Cancer Res. 52, 2497-2503).

[1] = test system: HMW-MAA-transfected M14 melanoma cells; assay: Immunogenicity in BALB/c mice: reactivity of sera with HMW-MAA-transfected and mock-transfected M14 melanoma cells in ELISA and FACS; assay type: in vivo; conditions: sera day 28; ELISA and FACS analysis
Protocol: FIGS. 4A and 4B are graphical depictions of the immunogenicity of peptide PMK2-23H3 in BALB/c mice. Sera harvested before immunization (circle) and on days 7 (square) and 28 (triangle) after immunization from BALB/c mice immunized with anti-id mAb-derived peptide PMK2-23H3 were tested for their reactivity in ELISA with the immunizing peptide (closed symbols, left panel of FIG. 4A) and with HMW-MAA-derived peptide PHMW.D2.7 (open symbols, right panel of FIG. 4A). Sera harvested before immunization (circles) and on day 28 (triangles) were tested in ELISA (left panel in FIG. 4B) with HMW-MAA-transfected M14#5 cells (closed symbols) and with their mock-transfected counterparts (open symbols, left panel in FIG. 4B). […]
Immunizations were given subcutaneously to 8-week-old female BALB/c mice (obtained from Taconic Farms, Germantown, N.Y.) (5 per group) on day 0, 21, and 42. […] They were tested for reactivity with the immunizing peptide coated on 96-well plates (Temponi, et al. (1989) Hybridoma. 8, 85-95) and with HMW-MAA-bearing melanoma cells in ELISA and fluorescence-activated cell sorting (FACS) analysis using conventional techniques as previously described (Chen, et al. (1991) J. Immunol. 147, 1082-1090).

[2] = test system: peptides PMK2-23H3, PHMW.D2.7 and anti-id mAb MK2-23; assay: Immunogenicity in BALB/c mice: reactivity of sera in peptide binding ELISA; assay type: in vivo; conditions: peptide conjugated to KLH with Freund adjuvant; for Reactivity of sera from immunized mice with HMW-MAA-derived peptide PHMW.D2.7 / Reactivity of sera from immunized mice with peptide PMK2-23H3: s.c. day 0, 21, 42, sera day 7 and 28, ELISA
Protocol: FIGS. 4A and 4B are graphical depictions of the immunogenicity of peptide PMK2-23H3 in BALB/c mice. Sera harvested before immunization (circle) and on days 7 (square) and 28 (triangle) after immunization from BALB/c mice immunized with anti-id mAb-derived peptide PMK2-23H3 were tested for their reactivity in ELISA with the immunizing peptide (closed symbols, left panel of FIG. 4A) and with HMW-MAA-derived peptide PHMW.D2.7 (open symbols, right panel of FIG. 4A). Sera harvested before immunization (circles) and on day 28 (triangles) were tested in ELISA (left panel in FIG. 4B) with HMW-MAA-transfected M14#5 cells (closed symbols) and with their mock-transfected counterparts (open symbols, left panel in FIG. 4B). Sera harvested on day 28 were tested by FACS analysis (right panel in FIG. 4B, open profiles) with HMW-MAA-transfected M14#5 cells (M14#5/HMW) and with their mock-transfected counterparts (M14#5/neo). Preimmune sera (filled profile) were used as controls.
Immunizations were given subcutaneously to 8-week-old female BALB/c mice (obtained from Taconic Farms, Germantown, N.Y.) (5 per group) on day 0, 21, and 42. Sera were harvested before immunization and on day 7 and 28. They were tested for reactivity with the immunizing peptide coated on 96-well plates (Temponi, et al. (1989) Hybridoma. 8, 85-95) and with HMW-MAA-bearing melanoma cells in ELISA and fluorescence-activated cell sorting (FACS) analysis using conventional techniques as previously described (Chen, et al. (1991) J. Immunol. 147, 1082-1090).

[3] = Solubility of peptide, as noted for the peptide binding assays; assay type: physicochemical
Protocol: Peptide PMK2-23H3, which was based on the H3 loop of anti-id mAb MK2-23 encompassing the HMW-MAA-homologous amino acid sequence (FIG. 1) was analyzed for reactivity with the HMW-MAA-specific idiotypic mAb 763.74. […] The peptide SVEYYGSSLMQ (designated as PMK2-23L1), which was derived from the L1 loop of anti-id mAb MK2-23 encompassing the described HMW-MAA-homologous a.a. sequence, was also synthesized.

Sequence | Inhibition of binding of mAb 763.74 to HMW-MAA-bearing melanoma cells (mAb 763.74) | IC50 for inhibition of mAb 763.74 binding (mAb 763.74) [nM] | Reactivity of sera from immunized mice with HMW-MAA-transfected M14 melanoma cells (M14.HMW-MAA) [1] | Reactivity of sera from immunized mice with mock-transfected M14 cells (M14.neo) [1] | Reactivity of sera from immunized mice with HMW-MAA-derived peptide PHMW.D2.7 [2] | Reactivity of sera from immunized mice with peptide PMK2-23H3 [2] | Reactivity of sera from immunized mice with anti-id mAb MK2-23 ([2]; s.c., peptide binding assay) | Solubility [3]
ARSNYVGYHVRWYFD [PMK2-23H3, identical to a portion of the H3 loop of anti-id mAb MK2-23] | inhibits the binding | 871 | reacted | did not react | reacted | reacted | reacted | 
IRSGDEVHYHVTAGPRW [PHMW-MAA.D2.7, IRSGDEVHYHV TAGPRW, identical to a region of HMW-MAA with partial homology to the H3 loop of MK2-23] |  | 900 |  |  |  |  |  | 
KNGERIEKVEHS (human; Beta 2-microglobulin peptide) [Pb2m, reference compound] | no detectable effect |  |  |  | no detectable reactivity | no detectable reactivity |  | 
SVEYYGSSLMQ [PMK2-23L1, SVEYYGSSLMQ] |  |  |  |  |  |  |  | low solubility
